From ChEMBL document CHEMBL3243996, “[1-Deaminopenicillamine,4-threonine]oxytocin, a potent inhibitor of oxytocin” (J Med Chem, 1978)
Calls of active or inactive are those of the source. The calls are words filed in the database; no cut-off is given here. Starred links: 1 amine or outer side, 2 acyl side, 3 side chain; linkers in the order of their positions; H or OH if unused. Positions of bridges follow the written chain, without caps; N, C: chain ends. Residues, ends and D or L forms follow the SMILES beside them. X2 = O=C(CC1(S[*:2])CCCCC1)[*:1]; X1 = CC(C)(CC(=O)[*:1])S[*:2]

Assays:
Oxytocin receptor [1] = target: T1, Oxytocin receptor (Rattus norvegicus, UniProt P70536); assay: (§1) Antagonist activity at oxytocin receptor in rat uterus by average effective molar concentration based analysis; assay type: tissue-based; conditions: read-out: pA2 (converted)
T1 sequence (P70536 whole entry): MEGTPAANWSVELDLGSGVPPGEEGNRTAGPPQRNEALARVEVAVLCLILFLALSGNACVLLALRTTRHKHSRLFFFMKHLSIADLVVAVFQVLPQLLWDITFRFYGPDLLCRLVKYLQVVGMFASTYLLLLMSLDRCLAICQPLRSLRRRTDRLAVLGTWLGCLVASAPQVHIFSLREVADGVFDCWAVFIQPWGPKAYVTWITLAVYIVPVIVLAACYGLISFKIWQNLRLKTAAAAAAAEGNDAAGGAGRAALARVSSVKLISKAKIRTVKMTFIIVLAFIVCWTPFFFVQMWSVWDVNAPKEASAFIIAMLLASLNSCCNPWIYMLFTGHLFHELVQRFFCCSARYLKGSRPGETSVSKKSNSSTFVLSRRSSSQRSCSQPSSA

[2] = target: T2, Oxytocin receptor (Rattus norvegicus) (UniProt P70536); assay: (§2) Antagonist activity at oxytocin receptor in rat uterus by Schild's method in absence of Mg2+; assay type: tissue-based
T2 sequence (whole entry): T1 sequence (P70536 whole entry)

Oxytocin receptor [3] = target: T1, Oxytocin receptor; assay: as §2; assay type: tissue-based; conditions: read-out: pA2 (converted)
[4] = target: T2, Oxytocin receptor (Rattus norvegicus); assay: as §1; assay type: tissue-based
[5] = (§3) Antagonist activity at rat vasopressin receptor
Rattus norvegicus [6] = species: Rattus norvegicus; assay: as §3
Rattus norvegicus [7] = species: Rattus norvegicus; assay: Agonist activity at rat vasopressin receptor
[8] = target: T2, Oxytocin receptor (Rattus norvegicus); assay: Agonist activity at oxytocin receptor in rat uterus; assay type: tissue-based

Kb (Oxytocin receptor [1])	A2 [2]	Kb (Oxytocin receptor [3])	SMILES	also measured
0.138 µM			CC[C@H](C)[C@@H]1NC(=O)[C@H](Cc2ccc(O)cc2)NC(=O)[C@@H](N)C(C)(C)SSC[C@@H](C(=O)N2CCC[C@H]2C(=O)N[C@@H](CC(C)C)C(=O)NCC(N)=O)NC(=O)[C@H](CC(N)=O)NC(=O)[C@H](CCC(N)=O)NC1=O	
0.115 µM	9.1 ×10⁻⁸ M	0.0724 µM	CC[C@H](C)[C@@H]1NC(=O)[C@H](Cc2ccc(O)cc2)NC(=O)CC(C)(C)SSC[C@@H](C(=O)N2CCC[C@H]2C(=O)N[C@@H](CC(C)C)C(=O)NCC(N)=O)NC(=O)[C@H](CC(N)=O)NC(=O)[C@H](CCC(N)=O)NC1=O (YIQNCPLG-NH2; linker N-5 via X1)	A2 [4]: 11.6 ×10⁻⁸ M; pA2 [5]: 6.27
		0.0347 µM	CC[C@H](C)[C@@H]1NC(=O)[C@H](Cc2ccc(O)cc2)NC(=O)CC(C)(C)SSC[C@@H](C(=O)N2CCC[C@H]2C(=O)N[C@@H](CC(C)C)C(=O)NCC(N)=O)NC(=O)[C@H](CC(N)=O)NC(=O)[C@H]([C@@H](C)O)NC1=O (stereo in doubt; 1a) [listing 1 of 2 here]	pA2 [5]: 6.67
	4 ×10⁻⁸ M		CC[C@H](C)[C@@H]1NC(=O)[C@H](Cc2ccc(O)cc2)NC(=O)CC(C)(C)SSC[C@@H](C(=O)N2CCC[C@H]2C(=O)N[C@@H](CC(C)C)C(=O)NCC(N)=O)NC(=O)[C@H](CC(N)=O)NC(=O)[C@H]([C@@H](C)O)NC1=O (stereo in doubt; 1a) [listing 2 of 2 here]	Activity (Rattus norvegicus [7]): inactive; Activity [8]: inactive
		0.0257 µM	CC[C@H](C)[C@@H]1NC(=O)[C@H](Cc2ccc(O)cc2)NC(=O)CC(C)(C)SSC[C@@H](C(=O)N2CCC[C@H]2C(=O)N[C@@H](CC(C)C)C(=O)NCC(N)=O)NC(=O)[C@H](CC(N)=O)NC(=O)[C@H]([C@@H](C)O)NC1=O (stereo in doubt; 1b) [listing 1 of 2 here]	
	4.3 ×10⁻⁸ M		CC[C@H](C)[C@@H]1NC(=O)[C@H](Cc2ccc(O)cc2)NC(=O)CC(C)(C)SSC[C@@H](C(=O)N2CCC[C@H]2C(=O)N[C@@H](CC(C)C)C(=O)NCC(N)=O)NC(=O)[C@H](CC(N)=O)NC(=O)[C@H]([C@@H](C)O)NC1=O (stereo in doubt; 1b) [listing 2 of 2 here]	

SMILES	Kb (Oxytocin receptor [1])	A2 [2]	Kb (Oxytocin receptor [3])	also measured
CC[C@H](C)[C@@H]1NC(=O)[C@H](Cc2ccc(O)cc2)NC(=O)CC2(CCCCC2)SSC[C@@H](C(=O)N2CCC[C@H]2C(=O)N[C@@H](CC(C)C)C(=O)NCC(N)=O)NC(=O)[C@H](CC(N)=O)NC(=O)[C@H](CCC(N)=O)NC1=O (YIQNCPLG-NH2; linker N-5 via X2)	0.0372 µM		0.0372 µM	A2 [4]: 3.7 ×10⁻⁸ M; Activity (Rattus norvegicus [6]): Active
